Read-outs that look alike come from different tables or passages of the source. Square brackets hold non-standard residues; d marks the D form. Ends that are not written are not given here. Peptide text beside a SMILES is read from it.
Target: T1, human CMKLR1 (Homo sapiens, UniProt Q99788)
T1 construct: host or cells: HEK293A (Invitrogen), stably expressing human Gα15
T1 sequence (Q99788 1-373): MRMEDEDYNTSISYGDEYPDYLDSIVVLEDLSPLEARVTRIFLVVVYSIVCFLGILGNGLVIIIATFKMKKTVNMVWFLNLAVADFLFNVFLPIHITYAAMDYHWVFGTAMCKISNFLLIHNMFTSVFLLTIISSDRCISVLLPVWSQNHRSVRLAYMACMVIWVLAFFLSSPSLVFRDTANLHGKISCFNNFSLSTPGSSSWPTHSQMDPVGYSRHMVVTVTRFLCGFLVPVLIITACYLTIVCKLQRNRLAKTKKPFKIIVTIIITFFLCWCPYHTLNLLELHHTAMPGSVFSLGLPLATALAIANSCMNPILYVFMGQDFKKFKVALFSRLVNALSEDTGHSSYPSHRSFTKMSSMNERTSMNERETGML
Assay: Ca2+ mobilization (CellLux imaging) agonist assay in HEK293A cells expressing CMKLR1 and Gα15
Assay type: cell-based
Description: HEK293A cells (Invitrogen) expressing CMKLR1 and Gα15 were seeded at 5*10^4 cells/well in a poly-D-lysine coated 96-well black well/clear bottom plate (BD Falcon) and cultured overnight. From eighteen to twenty-four hours later, cells were loaded with FLUO4-AM (Invitrogen). Then the cells were washed two times with C1 solution (130 mM NaCl, 5 mM KCl, 10 mM HEPES pH 7.4, 2 mM CaCl2, and 10 mM Glucose). After the final wash, a 100 µL of residual volume remained on the cells. Peptides were dissolved in 10% DMSO to a concentration of 1 mM and were diluted in C1 solution with 0.1 % BSA. They were aliquoted as 2x solutions in 96-well plates and were simultaneously transferred by the robotic system within the imager from the ligand plate to the cell plate. […] Fluorescence data was generated in duplicate and experiments were repeated for at least three times. […] For the calculation of concentration-response curves, signals of two wells receiving the same concentration of test substances were averaged and the fluorescence changes of corresponding buffer C1 wells were subtracted. Signals were normalized to background fluorescence. For the calculation of EC50 values, plots of amplitude versus concentrations were prepared in SigmaPlot 11.

[1] = Ca2+ mobilization, CMKLR1, decimal comma
[2] = Ca2+ mobilization, CMKLR1, decimal comma, NR where no EC50 is given, read-out: EC50

YFPGYFAFG-NH2 [compound 11]
max response [1]: 1,41 DF/F0 | EC50 [2]: 2620 nM

CC(C)C[C@H](NC(=O)[C@@H](N)Cc1ccc(O)cc1)C(=O)N1CCC[C@H]1C(=O)NCC(=O)N[C@@H](CCC(N)=O)C(=O)N[C@@H](Cc1ccccc1)C(=O)N[C@H](Cc1ccccc1)C(=O)N[C@@H](Cc1ccccc1)C(=O)N[C@@H](CO)C(N)=O [compound 4] (H-YLPGQF[dF]FS-NH2; N-terminus assumed)
max response [1]: 1,66 DF/F0

FLPGQFAFK-OH [compound 67]
max response [1]: 0,73 DF/F0 | EC50 [2]: 1240 nM

YFPGNFAFS-OH [compound 32]
max response: 0,89 DF/F0

C[C@H](NC(=O)[C@H](Cc1ccccc1)NC(=O)[C@H](CCC(N)=O)NC(=O)CNC(=O)[C@@H]1CCCN1C(=O)[C@@H](N)Cc1ccccc1)C(=O)N[C@@H](Cc1ccccc1)C(=O)N[C@H](CO)C(=O)N[C@H](CO)C(=O)O [compound 105] (H-FPGQFAF[dS][dS]-OH; N-terminus assumed)
max response [1]: 1,81 DF/F0 | EC50 [2]: 611 nM

YFPGHFAFS-OH [compound 31]
max response: 1,07 DF/F0

CC(C)C[C@H](NC(=O)[C@H](Cc1ccc(O)cc1)NC(=O)[C@@H](Cc1ccccc1)NC(=O)[C@@H]1CCCN1C(=O)[C@H]1CCCN1C(=O)[C@@H]1CCCN1C(=O)[C@H](CC(C)C)NC(=O)[C@@H](N)Cc1ccc(O)cc1)C(=O)N1CCC[C@H]1C(=O)O [compound 152] (H-YLP[dP]P[dF]YLP-OH; N-terminus assumed)
max response [1]: 1,7 DF/F0 | EC50 [2]: 302 nM

YYPGQYAYS-NH2 [compound 17]
max response [1]: 1,09 DF/F0 | EC50 [2]: 4360 nM

CC(C)C[C@H](NC(=O)[C@@H](N)Cc1ccc(O)cc1)C(=O)N1CCC[C@H]1C(=O)NCC(=O)N[C@@H](CCC(N)=O)C(=O)N[C@@H](Cc1ccccc1)C(=O)N[C@@H](C)C(=O)N[C@@H](Cc1ccccc1)C(=O)N[C@H](CO)C(=O)O [compound 33]
max response: 0,51 DF/F0

CC(C)C[C@H](NC(=O)[C@@H](N)Cc1ccc(O)cc1)C(=O)N1CCC[C@H]1C(=O)NCC(=O)N[C@@H](CCC(N)=O)C(=O)N[C@@H](Cc1ccc(O)cc1)C(=O)N[C@@H](C)C(=O)N[C@@H](Cc1ccccc1)C(=O)N[C@H](CO)C(=O)O [compound 81] (H-YLPGQYAF[dS]-OH; N-terminus assumed)
max response [1]: 1,73 DF/F0

CSCC[C@H](NC(=O)[C@@H](N)Cc1ccc(O)cc1)C(=O)N1CCC[C@H]1C(=O)NCC(=O)N[C@@H](CCC(N)=O)C(=O)N[C@@H](Cc1ccccc1)C(=O)N[C@@H](C)C(=O)N[C@@H](Cc1ccccc1)C(=O)N[C@H](CO)C(=O)O [compound 40] (H-YMPGQFAF[dS]-OH; N-terminus assumed)
max response: 0,74 DF/F0

C[C@H](NC(=O)[C@@H](Cc1ccccc1)NC(=O)[C@H](CCC(N)=O)NC(=O)CNC(=O)[C@@H]1CCCN1C(=O)[C@H](Cc1ccccc1)NC(=O)[C@@H](N)Cc1ccc(O)cc1)C(=O)N[C@@H](Cc1c[nH]c2ccccc12)C(=O)N[C@@H](CO)C(N)=O [compound 13] (H-YFPGQ[dF]AWS-NH2; N-terminus assumed)
max response [1]: 1,22 DF/F0 | EC50 [2]: 3200 nM

CC(C)C[C@@H](NC(=O)[C@H](N)Cc1ccc(O)cc1)C(=O)N1CCC[C@H]1C(=O)NCC(=O)N[C@@H](CCC(N)=O)C(=O)N[C@@H](Cc1ccccc1)C(=O)N[C@@H](C)C(=O)N[C@@H](Cc1ccccc1)C(=O)N[C@H](CO)C(=O)O [compound 98]
max response: 1,68 DF/F0

CC[C@H](C)[C@H](NC(=O)CNC(=O)[C@@H]1CCCN1C(=O)[C@H](Cc1ccccc1)NC(=O)[C@@H](N)Cc1ccc(O)cc1)C(=O)N[C@@H](Cc1ccccc1)C(=O)N[C@@H](C)C(=O)N[C@H](Cc1ccccc1)C(=O)N[C@@H](CO)C(N)=O [compound 10] (H-YFPGIFA[dF]S-NH2; N-terminus assumed)
max response [1]: 1,48 DF/F0 | EC50 [2]: 2220 nM

C[C@H](NC(=O)[C@@H](Cc1ccccc1)NC(=O)[C@H](CCC(N)=O)NC(=O)CNC(=O)[C@@H]1CCCN1C(=O)[C@@H](Cc1ccc(O)cc1)NC(=O)[C@H](N)Cc1ccc(O)cc1)C(=O)N[C@H](Cc1ccc(O)cc1)C(=O)N[C@H](CO)C(N)=O [compound 8] (H-[dY][dY]PGQ[dF]A[dY][dS]-NH2; N-terminus assumed)
max response [1]: 1,31 DF/F0 | EC50 [2]: 1880 nM

C[C@H](N)C(=O)N[C@H](Cc1c[nH]c2ccccc12)C(=O)N1CCC[C@H]1C(=O)NCC(=O)N[C@@H](CCC(N)=O)C(=O)N[C@@H](Cc1ccccc1)C(=O)N[C@@H](C)C(=O)N[C@H](Cc1ccc(O)cc1)C(=O)N[C@@H](CO)C(N)=O [compound 21] (H-A[dW]PGQFA[dY]S-NH2; N-terminus assumed)
max response [1]: 0,30 DF/F0 | EC50 [2]: 16500 nM

YFPGQFAFQ-OH [compound 50]
max response [1]: 1,04 DF/F0 | EC50 [2]: 52.6 nM

CC(C)C[C@H](NC(=O)[C@H](N)Cc1ccc(O)cc1)C(=O)N1CCC[C@H]1C(=O)NCC(=O)N[C@@H](CCC(N)=O)C(=O)N[C@@H](Cc1ccc(O)cc1)C(=O)N[C@@H](C)C(=O)N[C@@H](Cc1ccccc1)C(=O)N[C@@H](Cc1ccccc1)C(=O)O [compound 43] (H-[dY]LPGQYAFF-OH; N-terminus assumed)
max response [1]: 1,13 DF/F0

C[C@H](NC(=O)[C@H](CO)NC(=O)[C@H](Cc1ccccc1)NC(=O)[C@H](C)NC(=O)[C@H](Cc1ccccc1)NC(=O)[C@H](CCC(N)=O)NC(=O)[C@@H](N)Cc1ccccc1)C(=O)N[C@@H](Cc1ccccc1)C(=O)N[C@H](CO)C(=O)O [compound 103] (H-FQFAFSAF[dS]-OH; N-terminus assumed)
max response [1]: 1,76 DF/F0 | EC50 [2]: 194 nM

CC(C)C[C@H](NC(=O)[C@H]1CCCN1C(=O)CNC(=O)[C@H](Cc1ccccc1)NC(=O)[C@H](CC(C)C)NC(=O)[C@@H](N)Cc1ccccc1)C(=O)N[C@@H](C)C(=O)N[C@@H](CC(C)C)C(=O)N1CCC[C@@H]1C(=O)O [compound 116] (H-FLFG[dP]LAL[dP]-OH; N-terminus assumed)
max response [1]: 0,9 DF/F0 | EC50 [2]: 4140 nM

YFPGQFDFS-OH [compound 53]
max response: 0,93 DF/F0

CC(C)C[C@H](NC(=O)[C@@H](Cc1ccccc1)NC(=O)[C@H]1CCCN1C(=O)[C@H](CC(C)C)NC(=O)[C@H](C)NC(=O)[C@H](Cc1ccc(O)cc1)NC(=O)[C@H]1CCCN1C(=O)[C@H](CC(C)C)NC(=O)[C@H](N)Cc1ccccc1)C(=O)O [compound 118] (H-[dF]L[dP]YAL[dP][dF]L-OH; N-terminus assumed)
max response [1]: 0,61 DF/F0 | EC50 [2]: 21500 nM

WYPGNFAFS-NH2 [compound 16]
max response [1]: 1,47 DF/F0 | EC50 [2]: 3840 nM

C[C@H](NC(=O)[C@H](Cc1ccccc1)NC(=O)[C@H](CCC(N)=O)NC(=O)[C@H]1CCCN1C(=O)CNC(=O)[C@H](Cc1ccccc1)NC(=O)[C@@H](N)Cc1ccc(O)cc1)C(=O)N[C@@H](Cc1ccccc1)C(=O)N[C@@H](CO)C(N)=O [compound 14] (H-YFG[dP]QFAFS-NH2; N-terminus assumed)
max response [1]: 1,34 DF/F0 | EC50 [2]: 3440 nM

WFPGQYAYS-NH2 [compound 23]
max response [1]: 0,44 DF/F0 | EC50 [2]: 20700 nM

YFPGQFAFK-NH2 [compound 2]
max response [1]: 1,84 DF/F0 | EC50 [2]: 37.3 nM

CC(C)C[C@H](NC(=O)[C@@H](N)Cc1ccccc1)C(=O)N1CCC[C@H]1C(=O)NCC(=O)N[C@@H](CCC(N)=O)C(=O)N[C@@H](Cc1ccccc1)C(=O)N[C@@H](C)C(=O)N[C@@H](Cc1ccccc1)C(=O)N1CCC[C@@H]1C(=O)O [compound 110] (H-FLPGQFAF[dP]-OH; N-terminus assumed)
max response [1]: 1,59 DF/F0 | EC50 [2]: 1770 nM

YFPGNFAFS-NH2 [compound 6]
max response [1]: 1,30 DF/F0

CC(C)C[C@H](NC(=O)[C@H](N)Cc1ccc(O)cc1)C(=O)N1CCC[C@H]1C(=O)N[C@H](CO)C(=O)N[C@@H](CCC(N)=O)C(=O)N[C@@H](Cc1ccc(O)cc1)C(=O)N[C@@H](C)C(=O)N[C@@H](Cc1ccccc1)C(=O)N[C@H](Cc1ccccc1)C(=O)O [yLPsQYAFf] (H-[dY]LP[dS]QYAF[dF]-OH; N-terminus assumed)
EC50: 0.49 ± 0.13 nM

FPPGQGAFK-OH [compound 66]
max response [1]: 0,67 DF/F0 | EC50 [2]: 1180 nM

YFPGQYAFF-NH2 [compound 1]
max response [1]: 1,47 DF/F0 | EC50 [2]: 15.2 nM

C[C@H](NC(=O)[C@H](Cc1ccccc1)NC(=O)[C@H](CCC(N)=O)NC(=O)CNC(=O)[C@@H]1CCCN1C(=O)[C@H](CC(=O)O)NC(=O)[C@H](N)Cc1ccc(O)cc1)C(=O)N[C@@H](Cc1ccccc1)C(=O)N[C@H](CO)C(=O)O [compound 112] (H-[dY]DPGQFAF[dS]-OH; N-terminus assumed)
max response: 1,12 DF/F0

FYPGQWAYS-NH2 [compound 20]
max response [1]: 0,64 DF/F0 | EC50 [2]: 12900 nM

Source: paper PMC3351444, “Molecular Evolution of a Peptide GPCR Ligand Driven by Artificial Neural Networks” (PLoS ONE, 2012)
